Source: patent US20060058325A1, “Therapeutic quniazoline derivatives” (AstraZeneca AB, priority 2002, published 2006)
pIC50: −log10 of the molar value.

Legend:
[1] = target: T1, Aurora-A (Homo sapiens, UniProt O14965); assay: In vitro Aurora-A kinase inhibition test; assay type: biochemical
T1 construct: made in house; host or cells: Spodoptera frugiperda Sf21 insect cells (baculovirus)
T1 sequence (O14965 1-403): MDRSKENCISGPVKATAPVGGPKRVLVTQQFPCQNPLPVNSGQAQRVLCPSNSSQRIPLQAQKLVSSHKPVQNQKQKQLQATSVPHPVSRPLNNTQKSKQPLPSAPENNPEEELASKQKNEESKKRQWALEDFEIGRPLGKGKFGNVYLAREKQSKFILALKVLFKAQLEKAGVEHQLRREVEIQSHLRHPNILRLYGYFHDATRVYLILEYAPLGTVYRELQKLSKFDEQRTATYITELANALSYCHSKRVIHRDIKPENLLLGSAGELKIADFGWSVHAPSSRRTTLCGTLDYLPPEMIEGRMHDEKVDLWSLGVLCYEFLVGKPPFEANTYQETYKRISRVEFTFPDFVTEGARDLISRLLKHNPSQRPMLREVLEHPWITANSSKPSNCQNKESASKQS

[2] = target: T2, Aurora-B (Homo sapiens, UniProt Q96GD4); assay: In vitro Aurora-B kinase inhibition test; assay type: biochemical; conditions: recombinant Aurora-B, 33P-ATP peptide substrate, 60 minutes room temperature; read-out: concentration giving 50% inhibition of enzyme activity
T2 construct: 6-histidine; made in house; host or cells: Spodoptera frugiperda Sf21 insect cells (baculovirus)
Text: (b) In Vitro Aurora-B Kinase Inhibition Test
This assay determines the ability of a test compound to inhibit serine-threonine kinase activity. DNA encoding Aurora-B may be obtained by total gene synthesis or by cloning. This DNA may then be expressed in a suitable expression system to obtain polypeptide with serine-threonine kinase activity. In the case of Aurora-B, the coding sequence was isolated from cDNA by polymerase chain reaction (PCR) and cloned into the pFastBac system in a manner similar to that described above for Aurora-A (i.e. to direct expression of a 6-histidine tagged Aurora-B protein).
For the large scale expression of Aurora-B kinase activity, Sf21 insect cells were grown at 28° C. in TC100 medium supplemented with 10% foetal calf serum (Viralex) and 0.2% F68 Pluronic (Sigma) on a Wheaton roller rig at 3 r.p.m. When the cell density reached 1.2×10^6 cells ml^−1 they were infected with plaque-pure Aurora-B recombinant virus at a multiplicity of infection of 1 and harvested 48 hours later. All subsequent purification steps were performed at 4° C. […]

[3] = system: SW620 cells; assay: In vitro cell proliferation assay (BrdU incorporation); assay type: cell-based; conditions: Homo sapiens, SW-620, 48 hours with compound, 2 hour BrdU labelling, read-out: concentration active in test (50% inhibition of BrdU incorporation)
Text: (c) In Vitro Cell Proliferation Assay
This and other assays can be used to determine the ability of a test compound to inhibit the growth of adherent mammalian cell lines, for example the human tumour cell line SW620 (ATCC CCL-227). This assay determines the ability of at test compound to inhibit the incorporation of the thymidine analogue, 5′-bromo-2′-deoxy-uridine (BrdlD into cellular DNA. SW620 or other adherent cells were typically seeded at 1×10^5 cells per well in L-15 media (GIBCO) plus 5% foetal calf serum, 1% L-glutamine (100 μl /well) in 96 well tissue culture treated 96 well plates (Costar) and allowed to adhere overnight. The following day the cells were dosed with compound (diluted from 10 mM stock in DMSO using L-15 (with 5% FCS, 1% L-glutamine). Untreated control wells and wells containing a compound known to give 100% inhibition of BrdU incorporation were included on each plate. After 48 hours in the presence/absence of test compound the ability of the cells to incorporate BrdU over a 2 hour labelling period was determined using a Boelringer (Roche) Cell Proliferation BrdU ELISA kit (cat. No. 1 647 229) according to manufacturers directions. […] The optical density of the wells was then determined at 690 nm wavelength using a Titertek Multiscan plate reader. […]

[4] = system: SW620 cells; assay: In vitro cell cycle analysis assay (FACS DNA content); assay type: cell-based, human; conditions: 24 hours with compound
Procedure: (d) In Vitro Cell Cycle Analysis Assay
This assay determines the ability of a test compound to arrest cells in specific phases of the cell cycle. Many different mammalian cell lines could be used in this assay and SW620 cells are included here as an example. SW620 cells were seeded at 7×10^5 cells per T25 flask (Costar) in 5 ml L-15 (5% FCS, 1% L-glutamine). Flasks were then incubated overnight in a humidified 37° C. incubator with 5% CO2. The following day, 5 μl of L-15 (5% FCS, 1% L-glutamine) carrying the appropriate concentration of test compound solubilised in DMSO was added to the flask. A no compound control treatments was also included (0.5% DMSO). The cells were then incubated for a defined time (24 hours) with compound. […]
Each sample was then syringed 10 times using 21-guage needle. The samples were then transferred to LPS tubes and DNA content per cell analysed by Fluorescence activated cell sorting (FACS) using a FACScan flow cytometer (Becton Dickinson). Typically 30,000 events were counted and recorded using CellQuest v1.1 software (Verity Software). Cell cycle distribution of the population was calculated using Modfit software (Verity Software) and expressed as percentage of cells with 2N (G0/G1), 2N-4N (S phase) and with 4N (G2/M) DNA content. […]

T2 sequence (Q96GD4 whole entry): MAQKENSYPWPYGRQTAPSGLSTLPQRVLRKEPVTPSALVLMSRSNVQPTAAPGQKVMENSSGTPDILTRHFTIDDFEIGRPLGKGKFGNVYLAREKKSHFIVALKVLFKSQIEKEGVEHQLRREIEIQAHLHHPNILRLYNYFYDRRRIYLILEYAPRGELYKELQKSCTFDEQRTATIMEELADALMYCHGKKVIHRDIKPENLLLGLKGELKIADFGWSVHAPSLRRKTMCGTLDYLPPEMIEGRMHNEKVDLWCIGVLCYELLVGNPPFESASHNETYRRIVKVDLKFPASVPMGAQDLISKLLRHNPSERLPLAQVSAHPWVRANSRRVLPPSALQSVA

SMILES: CCN(CCCOc1cc2ncnc(Nc3cnc(NC(=O)c4ccc(F)c(Cl)c4)nc3)c2cc1OC)CCOP(=O)(O)O [Compound 24, 2-[(3-{[4-({2-[(3-chloro-4-fluorobenzoyl)amino]pyrimidin-5-yl}amino)-6-methoxyquinazolin-7-yl]oxy}propyl)(ethyl)amino]ethyl dihydrogen phosphate]
- pIC50 [1]: 9.52
- pIC50 [2]: 7.91
- pIC50 [3]: 6.52
- concentration active in cell cycle analysis test [4]: 1.5 µM
